Each compound was assayed against T1, vitronectin receptor αvβ3 (Homo sapiens, UniProt P05106+P06756) (assay: Inhibition of binding of 293 cells to human vitronectin (Vn/293 cell test)). Conditions: 293 cells cotransfected with αv and β3 subunits; plate coated with human vitronectin; 90 minutes at 37° C.
T1 construct: expressed in transfected cells
Assay type: cell-based
Text: Test for the Measurement of the Inhibition of Binding of 293 Cells to Human Vitronectin (Vn/293 Cell Test)
1. Purification of Human Vitronectin
Human vitronectin is isolated from human plasma and purified by affinity chromatography according to the method of Yatohyo et al., Cell Structure and Function […]: 281-292 (1988).
293 cells, a human embryonic kidney cell line, which are cotransfected with DNA sequences for the αv and β3 subunits of the vitronectin receptor αvβ3, are selected for a high rate of expression (>500,000 αvβ3 receptors/cell) according to the FACS method. The selected cells are cultured and sorted again by means of FACS in order to obtain a stable cell line (15 D) with expression rates >1,000,000 copies of αvβ3 per cell.
A Linbro 96-well tissue culture plate with a flat bottom is coated overnight at 4° C. with human vitronectin (0.01 mg/ml, 0.05 ml/well) in phosphate-buffered saline solution (PBS) and then blocked with 0.5% strength BSA (bovine serum albumin). Solutions of the test substances from 10^−10 mol/l to 2×10^−3 mol/l in glucose-containing DMEM medium are prepared and 0.05 ml/well of the solution are added to the plate in each case. The cells which express high levels of αvβ3 (for example 15 D) are suspended in glucose-containing DMEM medium and the suspension is adjusted to a content of 25,000 cells/0.05 ml of medium. 0.05 ml of this cell suspension is added to each well and the plate is incubated at 37° C. for 90 minutes. The plate is washed three times with warm PBS in order to remove unbound cells. The bound cells are lyzed in citrate buffer (25 mM, pH 5.0) which contains 0.25% Triton X-100. The hexoseamidase substrate p-nitrophenyl-N-acetyl-β-D-glucosaminide is then added and the plate is incubated at 37° C. for 90 minutes. The reaction is stopped with a glycine (50 mM)/EDTA (5 mM) buffer (ph 10.4), and the absorption of each well is measured at 405-650 nm. The data are analyzed according to standard processes.

T1 sequence (P06756 31-889 limits assumed): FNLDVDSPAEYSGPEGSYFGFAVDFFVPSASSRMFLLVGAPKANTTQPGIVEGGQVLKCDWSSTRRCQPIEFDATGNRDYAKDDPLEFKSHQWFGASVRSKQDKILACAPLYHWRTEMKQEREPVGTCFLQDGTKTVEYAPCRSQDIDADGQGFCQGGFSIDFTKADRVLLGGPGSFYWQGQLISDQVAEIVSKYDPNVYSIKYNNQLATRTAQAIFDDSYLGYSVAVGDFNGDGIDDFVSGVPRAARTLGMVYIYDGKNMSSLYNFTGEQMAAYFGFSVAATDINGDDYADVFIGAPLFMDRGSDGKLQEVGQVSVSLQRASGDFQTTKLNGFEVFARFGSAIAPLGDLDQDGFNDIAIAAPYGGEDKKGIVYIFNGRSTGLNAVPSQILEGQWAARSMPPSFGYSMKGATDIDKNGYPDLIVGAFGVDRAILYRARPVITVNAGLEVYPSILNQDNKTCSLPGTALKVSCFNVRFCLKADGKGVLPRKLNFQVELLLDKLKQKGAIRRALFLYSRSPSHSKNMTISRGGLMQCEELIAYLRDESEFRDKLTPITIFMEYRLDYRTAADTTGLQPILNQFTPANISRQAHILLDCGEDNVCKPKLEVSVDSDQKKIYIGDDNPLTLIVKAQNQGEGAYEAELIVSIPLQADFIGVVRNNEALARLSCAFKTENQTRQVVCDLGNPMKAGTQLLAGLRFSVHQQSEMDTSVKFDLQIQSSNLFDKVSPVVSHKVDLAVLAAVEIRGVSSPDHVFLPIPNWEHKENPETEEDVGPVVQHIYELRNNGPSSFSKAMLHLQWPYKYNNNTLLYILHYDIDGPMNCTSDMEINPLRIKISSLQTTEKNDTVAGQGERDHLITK
T1 sequence (P06756 891-1048 partner limits assumed): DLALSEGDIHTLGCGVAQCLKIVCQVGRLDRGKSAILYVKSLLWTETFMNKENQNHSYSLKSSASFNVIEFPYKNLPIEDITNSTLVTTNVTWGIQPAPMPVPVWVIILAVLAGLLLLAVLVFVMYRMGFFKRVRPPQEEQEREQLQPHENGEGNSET
T1 sequence (P05106 27-788): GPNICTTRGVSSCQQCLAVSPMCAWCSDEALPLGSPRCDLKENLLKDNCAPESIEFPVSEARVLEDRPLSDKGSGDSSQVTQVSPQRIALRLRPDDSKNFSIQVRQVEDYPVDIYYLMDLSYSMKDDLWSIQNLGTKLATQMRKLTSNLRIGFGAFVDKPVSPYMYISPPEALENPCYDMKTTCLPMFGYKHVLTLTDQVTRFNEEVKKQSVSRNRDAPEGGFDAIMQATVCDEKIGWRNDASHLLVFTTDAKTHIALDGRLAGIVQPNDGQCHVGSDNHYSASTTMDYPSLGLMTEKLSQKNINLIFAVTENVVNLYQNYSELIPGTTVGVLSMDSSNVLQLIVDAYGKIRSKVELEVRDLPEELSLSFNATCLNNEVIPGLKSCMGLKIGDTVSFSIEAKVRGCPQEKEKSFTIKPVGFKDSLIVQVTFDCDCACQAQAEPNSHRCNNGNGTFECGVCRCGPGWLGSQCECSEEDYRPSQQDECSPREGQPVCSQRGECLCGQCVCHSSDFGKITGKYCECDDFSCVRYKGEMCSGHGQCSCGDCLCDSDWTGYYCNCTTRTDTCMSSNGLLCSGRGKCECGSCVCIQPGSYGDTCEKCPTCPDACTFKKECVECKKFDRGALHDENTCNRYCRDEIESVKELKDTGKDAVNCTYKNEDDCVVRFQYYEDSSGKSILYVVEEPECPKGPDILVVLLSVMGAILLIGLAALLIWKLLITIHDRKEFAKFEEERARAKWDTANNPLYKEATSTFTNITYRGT

Row | SMILES | IC50
1 | O=C(CCc1ccc(C(=O)NC[C@H](NS(=O)(=O)c2cccc(Cl)c2)C(=O)O)cc1)NC1=NCCCN1 [Example 14, (2S)-2-(3-Chloro-benzenesulfonylamino)-3-(4-(2-(1,4,5,6-tetrahydropyrimidin-2-ylcarbamoyl)-ethyl)-benzoylamino)-propionic acid] | 10 nM
2 | O=C(CCc1ccc(C(=O)NC[C@H](NS(=O)(=O)c2ccc3ccccc3c2)C(=O)O)cc1)NC1=NCCCN1 [Example 20, (2S)-2-(Naphthalene-2-sulfonylamino)-3-(4-(2-(1,4,5,6-tetrahydropyrimidin-2-ylcarbamoyl)-ethyl)-benzoylamino)-propionic acid] | 5 nM
3 | O=C(CCc1ccc(C(=O)NC[C@H](NS(=O)(=O)c2cccc3cccnc23)C(=O)O)cc1)NC1=NCCCN1 [Example 2, (2S)-2-(Quinoline-8-sulfonylamino)-3-(4-(2-(1,4,5,6-tetrahydropyrimidin-2-ylcarbamoyl)-ethyl)-benzoylamino)-propionic acid] | 52 nM
4 | CS(=O)(=O)N[C@@H](CNC(=O)c1ccc(CCC(=O)NC2=NCCCN2)cc1)C(=O)O [Example 24, (2S)-2-Methanesulfonylamino-3-(4-(2-(1,4,5,6-tetrahydropyrimidin-2-ylcarbamoyl)-ethyl)-benzoylamino)-propionic acid] | 100 nM
5 | O=C(CCc1ccc(C(=O)NC[C@H](NS(=O)(=O)c2ccccc2)C(=O)O)cc1)NC1=NCCCN1 [Example 17, (2S)-2-Benzenesulfonylamino-3-(4-(2-(1,4,5,6-tetrahydropyrimidin-2-ylcarbamoyl)-ethyl)-benzoylamino)-propionic acid] | 9 nM
6 | CCCCOc1ccc(S(=O)(=O)N[C@@H](CNC(=O)c2ccc(CCC(=O)NC3=NCCCN3)cc2)C(=O)O)cc1 [Example 10, (2S)-2-(4-Butoxy-benzenesulfonylamino)-3-(4-(2-(1,4,5,6-tetrahydropyrimidin-2-ylcarbamoyl)-ethyl)-benzoylamino)-propionic acid] | 29 nM
7 | COc1ccc(S(=O)(=O)N[C@@H](CNC(=O)c2ccc(CCC(=O)NC3=NCCCN3)cc2)C(=O)O)cc1 [Example 16, (2S)-2-(4-Methoxy-benzenesulfonylamino)-3-(4-(2-(1,4,5,6-tetrahydropyrimidin-2-ylcarbamoyl)-ethyl)-benzoylamino)-propionic acid] | 26 nM
8 | CC(C)CS(=O)(=O)N[C@@H](CNC(=O)c1ccc(CCC(=O)NC2=NCCCN2)cc1)C(=O)O [Example 9, (2S)-2-(2-Methyl-propane-1-sulfonylamino)-3-(4-(2-(1,4,5,6-tetrahydropyrimidin-2-ylcarbamoyl)-ethyl)-benzoylamino)-propionic acid] | 69 nM
9 | O=C(CCc1ccc(C(=O)NC[C@H](NS(=O)(=O)/C=C/c2ccccc2)C(=O)O)cc1)NC1=NCCCN1 [Example 7, (2S)-2-(2-Phenyl-ethenesulfonylamino)-3-(4-(2-(1,4,5,6-tetrahydropyrimidin-2-ylcarbamoyl)-ethyl)-benzoylamino)-propionic acid] | 28 nM
10 | Cc1cc(C)c(S(=O)(=O)N[C@@H](CNC(=O)c2ccc(CCC(=O)NC3=NCCCN3)cc2)C(=O)O)c(C)c1 [Example 21, (2S)-3-(4-(2-(1,4,5,6-Tetrahydropyrimidin-2-ylcarbamoyl)-ethyl)-benzoylamino)-2-(2,4,6-trimethyl-benzenesulfonylamino)-propionic acid] | 21 nM
11 | O=C(CCc1ccc(C(=O)NC[C@H](NS(=O)(=O)c2ccc(Cl)cc2)C(=O)O)cc1)NC1=NCCCN1 [Example 13, (2S)-^2-(4-Chloro-benzenesulfonylamino)-3-(4-(2-(1,4,5,6-tetrahydropyrimidin-2-ylcarbamoyl)-ethyl)-benzoylamino)-propionic acid] | 27 nM
12 | O=C(CCc1ccc(C(=O)NC[C@H](NS(=O)(=O)c2cccc(C(F)(F)F)c2)C(=O)O)cc1)NC1=NCCCN1 [Example 15, (2S)-3-(4-(2-(1,4,5,6-Tetrahydropyrimidin-2-ylcarbamoyl)-ethyl)-benzoylamino)-2-(3-trifluoromethyl-benzenesulfonylamino)-propionic acid] | 6 nM
13 | CC(=O)Nc1ccc(S(=O)(=O)N[C@@H](CNC(=O)c2ccc(CCC(=O)NC3=NCCCN3)cc2)C(=O)O)cc1 [Example 3, (2S)-2-(4-Acetylamino-benzenesulfonylamino)-3-(4-(2-(1,4,5,6-tetrahydropyrimidin-2-ylcarbamoyl)-ethyl)-benzoylamino)-propionic acid] | 27 nM
14 | CCCc1ccc(S(=O)(=O)N[C@@H](CNC(=O)c2ccc(CCC(=O)NC3=NCCCN3)cc2)C(=O)O)cc1 [Example 8, (2S)-2-(4-Propyl-benzenesulfonylamino)-3-(4-(2-(1,4,5,6-tetrahydropyrimidin-2-ylcarbamoyl)-ethyl)-benzoylamino)-propionic acid] | 20 nM
15 | O=C(CCc1ccc(C(=O)NC[C@H](NS(=O)(=O)c2ccc(C(F)(F)F)cc2)C(=O)O)cc1)NC1=NCCCN1 [Example 22, (2S)-3-(4-(2-(1,4,5,6-Tetrahydropyrimidin-2-ylcarbamoyl)-ethyl)-benzoylamino)-2-(4-trifluoromethyl-benzenesulfonylamino)-propionic acid] | 10 nM
16 | O=C(CCc1ccc(C(=O)NC[C@H](NS(=O)(=O)c2cccc3ccccc23)C(=O)O)cc1)NC1=NCCCN1 [Example 1, (2S)-2-(Naphthalene-1-sulfonylamino)-3-(4-(2-(1,4,5,6-tetrahydropyrimidin-2-ylcarbamoyl)-ethyl)-benzoylamino)-propionic acid] | 6 nM
17 | CCCCS(=O)(=O)N[C@@H](CNC(=O)c1ccc(CCC(=O)NC2=NCCCN2)cc1)C(=O)O [Example 23, (2S)-2-(Butane-1-sulfonylamino)-3-(4-(2-(1,4,5,6-tetrahydropyrimidin-2-ylcarbamoyl)-ethyl)-benzoylamino)-propionic acid] | 30 nM
18 | CC1(C)C2CCC1(CS(=O)(=O)N[C@@H](CNC(=O)c1ccc(CCC(=O)NC3=NCCCN3)cc1)C(=O)O)C(=O)C2 (stereo partly drawn) [Example 12, (2S)-2-(7,7-Dimethyl-2-oxo-bicyclo[2.2.1]hept-1-ylmethanesulfonylamino)-3-(4-(2-(1,4,5,6-tetrahydropyrimidin-2-ylcarbamoyl)-ethyl)-benzoylamino)-propionic acid] | 27 nM
19 | N#Cc1ccccc1S(=O)(=O)N[C@@H](CNC(=O)c1ccc(CCC(=O)NC2=NCCCN2)cc1)C(=O)O [Example 11, (2S)-2-(2-Cyano-benzenesulfonylamino)-3-(4-(2-(1,4,5,6-tetrahydropyrimidin-2-ylcarbamoyl)-ethyl)-benzoylamino)-propionic acid] | 24 nM
20 | O=C(CCc1ccc(C(=O)NC[C@H](NS(=O)(=O)c2cccs2)C(=O)O)cc1)NC1=NCCCN1 [Example 18, (2S)-3-(4-(2-(1,4,5,6-Tetrahydropyrimidin-2-ylcarbamoyl)-ethyl)-benzoylamino)-2-(thiophene-2-sulfonylamino)-propionic acid] | 14 nM
21 | O=C(CCc1ccc(C(=O)NC[C@H](NS(=O)(=O)c2ccc(-c3ccccc3)cc2)C(=O)O)cc1)NC1=NCCCN1 [Example 19, (2S)-2-(Biphenyl-4-sulfonylamino)-3-(4-(2-(1,4,5,6-tetrahydropyrimidin-2-ylcarbamoyl)-ethyl)-benzoylamino)-propionic acid] | 38 nM
22 | CCCS(=O)(=O)N[C@@H](CNC(=O)c1ccc(CCC(=O)NC2=NCCCN2)cc1)C(=O)O [Example 6, (2S)-2-(Propane-1-sulfonylamino)-3-(4-(2-(1,4,5,6-tetrahydropyrimidin-2-ylcarbamoyl)-ethyl)-benzoylamino)-propionic acid] | 32 nM
23 | CC(C)(C)c1ccc(S(=O)(=O)N[C@@H](CNC(=O)c2ccc(CCC(=O)NC3=NCCCN3)cc2)C(=O)O)cc1 [Example 5, (2S)-2-(4-tert-Butyl-benzenesulfonylamino)-3-(4-(2-(1,4,5,6-tetrahydropyrimidin-2-ylcarbamoyl)-ethyl)-benzoylamino)-propionic acid] | 18 nM

Reference: patent publication US6747148B2, “Sulfonamide derivatives as inhibitors of bone resorption and as inhibitors of cell adhesion” (Hoechst Marion Roussel Deutschland GmbH, priority 1998, dated 2004)
